What all share (test): inhibition of tumour cell growth, NCI panel, 48 h
Test [1] relates to HL-60.
Test [2] has as its system NCI-H522.
Test [3] deals with NCI-H226.
Test [4] concerns SK-OV-3.
Test [5] has as its system OVCAR-8.
Test [6] concerns MDA-MB-435.
Test [7] has as its system LOX IMVI.
In test [8] the test system is MDA-MB-231.
The test system of test [9] is COLO 205.
Test [10] has as its system CAKI-1.
Test [11] relates to MCF7.
Test [12] has as its system SN12C.
In test [13] the test system is SF-539.
In test [14] the test system is SK-MEL-28.
In test [15] the test system is TK-10.
In test [16] the test system is ACHN.
Test [17] concerns IGROV-1.
The subject of test [18] is T47D.
Test [19] has as its system HCT-15.
Test [20] has as its system NCI-H460.

Experimental findings from ChEMBL document CHEMBL1201862, “PubChem BioAssay data set” (2004) are described below.

SMILES strings stand for the structures.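 Where inhibition never reached the appropriate level, the endpoint shown equals the highest concentration tested. Otherwise, values were interpolated linearly from a five-concentration, 48-hour dose response in 96-well plates. GI50 marks 50% less growth.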 Active and inactive are the calls of the source. Cut-off read from the data, not from the text of the source: active = GI50 up to about 1.1 µM and inactive = higher.

As to `CC1OC(O[C@@H]2OC=C(C=O)[C@@]3(O)CC[C@H](C)[C@@H]23)C(O)C(O)C1O` (some centres not stated), the GI50 in [1], in test [2], in test [3], in [4], in test [5] and in test [6] was > 100 µM (inactive) each time. In addition, the GI50 in test [7], in test [8], in test [9], in test [10], in test [11] and in test [12] was > 100 µM (inactive) throughout. Besides, the GI50 in [13], in test [14], in test [15], in [16], in test [17] and in test [18] was > 100 µM (inactive) throughout. The GI50 in test [19] was above 100 µM; in test [20] it was > 100 µM (inactive).

Take `COc1cc2cc(C(=O)N3CC(CCl)c4ccc([N+](C)(C)Cc5ccccc5[N+](=O)[O-])cc43)[nH]c2c(OC)c1OC` (configuration not stated): the GI50 in test [1] was 2.77 µM (inactive); in test [2] it was 0.198 µM (active); in [3], 1.48 µM (inactive); in [4], 4.51 µM (inactive); in test [5] it was 3.44 µM (inactive); in test [6], 1.82 µM (inactive). For the same compound, the GI50 in [7] is 2.31 µM (inactive); in test [8], 3.94 µM (inactive); in test [9], 2 µM (inactive); in [10], 1.01 µM (active); in [11], 0.621 µM (active); in [12] it was 4.05 µM (inactive). Besides, the GI50 is 1.63 µM (inactive) in test [13]; 2.46 µM (inactive) in test [14]; 2.74 µM (inactive) in [15]; 0.348 µM (active) in [16]; 1.82 µM (inactive) in [17]; 2.31 µM (inactive) in test [18]. In test [19], the GI50 was 2.14 µM.

In the case of `CC1CCCC(C(O)CC2CC(=O)NC(=O)C2)C1O` (configuration not stated), the GI50 in [1], in test [3], in test [4], in [5], in [6] and in [7] was > 100 µM (inactive) throughout. Further, the GI50 in test [8], in test [9], in [10], in test [11], in [12] and in [13] was > 100 µM (inactive) throughout. Further, the GI50 in test [14] was > 100 µM (inactive); in [15] it was > 100 µM (inactive); in test [16], > 100 µM (inactive); in [17] it was > 100 µM (inactive); in test [18], > 100 µM (inactive); in test [19], above 100 µM. In test [20], the GI50 is > 100 µM (inactive).

Turning to `CN1CCN(CCCNN)CC1`, the GI50 is 7.33 µM (inactive) in test [1]; > 100 µM (inactive) in test [2]; > 100 µM (inactive) in [3]; > 100 µM (inactive) in test [4]; > 100 µM (inactive) in test [5]; > 100 µM (inactive) in [6]. The GI50 in [7], in test [8], in [9], in test [10], in [11] and in test [12] was > 100 µM (inactive) each time. Further, the GI50 in test [13], in test [14], in [15], in [16], in [17] and in test [18] was > 100 µM (inactive) throughout. Also, the GI50 is above 100 µM in test [19] and > 100 µM (inactive) in test [20].

Consider `O=C(Nc1nccs1)NS(=O)(=O)n1cnc2ccccc21`, for which the GI50 in [1], in test [2], in test [3], in test [4], in test [5] and in test [6] was > 100 µM (inactive) in each case. The GI50 in [8], in [9], in [10], in test [11], in [12] and in test [13] was > 100 µM (inactive) each time. Moreover, the GI50 in [14] is > 100 µM (inactive); in test [15] it was > 100 µM (inactive); in test [16], > 100 µM (inactive); in test [17] it was > 100 µM (inactive); in [18] it was > 100 µM (inactive); in test [19], above 100 µM. The GI50 in [20] was > 100 µM (inactive).

As for `NC(=O)C(=CNC(=S)Nc1cccc(C(F)(F)F)c1)C(N)=O`, the GI50 in [1], in [3], in [4], in test [5], in [6] and in test [7] was > 100 µM (inactive) in each case. Further, the GI50 in [8] was > 100 µM (inactive); in test [9], > 100 µM (inactive); in test [10], 28.4 µM (inactive); in test [11] it was > 100 µM (inactive); in test [12], > 100 µM (inactive); in [13], > 100 µM (inactive). The GI50 in test [14], in [15], in [16], in test [18] and in [20] was > 100 µM (inactive) in each case.

Turning to `COC(=O)C(/C(=N/N)C(=O)Nc1ccc(C)c(C)c1)c1nc2ccc(Cl)cc2nc1O` (configuration not stated), the GI50 in test [1], in test [2], in [3], in [4], in [5] and in test [6] was > 100 µM (inactive) in each case. Besides, the GI50 in [7], in [8], in test [10], in [11], in test [12] and in test [13] was > 100 µM (inactive) in each case. Further, the GI50 in [14] was > 100 µM (inactive); in test [15], > 100 µM (inactive); in test [16] it was 40.3 µM (inactive); in test [17], 49.3 µM (inactive); in test [18], > 100 µM (inactive); in test [19] it was above 100 µM. Further, the GI50 in [20] is > 100 µM (inactive).

Regarding `O=c1[nH]cnc2c(C3OC(CO)C(O)C3O)c[nH]c12` (configuration not stated), the GI50 in test [1], in [2], in test [3], in test [4], in [5] and in [6] was > 100 µM (inactive) in each case. Also, the GI50 in test [7], in test [8], in test [9], in [10], in test [11] and in test [12] was > 100 µM (inactive) each time. Moreover, the GI50 in [13], in test [14], in test [15], in test [16], in [17] and in [18] was > 100 µM (inactive) throughout. Besides, in test [20], the GI50 is > 100 µM (inactive).
